What is called GI50 is the concentration at which growth is held to half of that of the control. Broadly, the DC50 is the concentration giving 50% degradation.

Common to all, as to assay type: cell-based
The test system of one assay is A431. In words: Cell growth inhibition assay (CellTiter-Glo), A431. The note with it: Homo sapiens, A-431, 72 h, Table 6; A431 cells, three days, CellTiter-Glo; read-out: A431 GI50. The procedure: (§1) Cells were seeded in a 96-well plate (Corning 3610) with 90 μL of culture medium per well, and plates were incubated at 37° C. overnight. A 1,000× DMSO stock solution of the desired compound was prepared the following day. A compound dilution plate was prepared by diluting the stock solution 1:100 in the corresponding cell culture medium, 10 μL of the diluted compound solution was added to each 96-well plate well containing the seeded cells. […] The content of the wells was mixed by shaking continuously for 10 min, and luminescence was measured using Envision (PerkinElmer). The data were analyzed with GraphPad Prism 9 (see FIG. 50).
(§2) Table 6, Table 7, and Table 8 list the cell growth inhibition results, where Gls0 represents the compound concentration to cause 50% cell growth inhibition in comparison with DMSO.
On the technique in general: Cellular ATP, detected with luciferase, serves as a proxy for viable cell number.

The test system of the next assay is BaF3_ASV. In words: Cell growth inhibition assay (CellTiter-Glo), BaF3_ASV. Conditions: 72 h; Table 6; BaF3_ASV cells, three days, CellTiter-Glo; read-out: BaF3_ASV GI50. The procedure:
as §1, §2

Another assay concerns BaF3_DTC. In words: Cell growth inhibition assay (CellTiter-Glo), BaF3_DTC. Conditions: 72 h; Table 6; BaF3_DTC cells, three days, CellTiter-Glo; read-out: BaF3_DTC GI50. The procedure: as §1, §2
Assay [1] concerns the target T1, BaF3_ASV (EGFR_A776inASV) (Homo sapiens, UniProt P00533, DUP767-769).
T1 construct: expressed in transfected cells; host or cells: Ba/F3 (engineered)
In words: EGFR degradation assay (western blot), BaF3_ASV cells. Conditions: BaF3_ASV cells, compounds 24 h, western blot; read-out: BaF3_ASV DC50. The procedure:
(§3) A431 (EGFR_WT), NCl-H2073 (EGFR_WT), NCl-H292 (EGFR_WT), BaF3_YVAM (Her2_A775insYVAM), BaF3_SVD (EGFR_D770insSVD), BaF3_ASV (EGFR_A776inASV), or BaF3_DTC (EGFR_Exon19del/T790M/C797S) cells were seeded in a 24-well plate at a density of 4×10^5 cells per well for EGFR WT cells and 8× cells per well for EGFR or Her2 mutant cells, and the plates were incubated overnight. The cells were treated with the desired compounds for 24 h. The culture medium was removed, and 100 μL of RIPA buffer (Beyotime, P0013B) containing 1% Protease Inhibitor Cocktail (Bimake, B14001), 1% Phosphatase Inhibitor Cocktail 2 (Sigma, P5726), and 1% Phosphatase Inhibitor Cocktail 3 (Sigma, P0044) were added to lyse the cells. Then, the cell lysates were transferred to 1.5 mL microcentrifuge tubes and centrifuged at 12,000 rpm and 4° C. for 30 min. The supernatants were transferred into new tubes, and the protein concentration was determined using the BCA protein quantification method. All samples were diluted to the same concentration using RIPA buffer, loading buffer was added, samples were denatured, and 15 μg of protein per lane was loaded onto a SurePAGE 4-20% Bis-Tris gel. Samples were separated via electrophoresis in MOPS running buffer at 180 V for 100 min. Then, proteins were transferred onto PVDF membranes using the MiniBlot™ Electrophoretic Transfer Cell Device (Beyotime, E6050). The membrane was blocked using block buffer (LI-COR 927-60001) to prevent non-specific binding. The membrane was incubated with primary antibodies (1:500 dilution, EGFR-CST4405, 1:2000 dilution, Tubulin-ABclonal #AC021) at 4° C. overnight. The membrane was washed three times with 1× TBST buffer for 15 min each. The membrane was incubated with secondary antibodies IRDye 680RD Goat anti-Rabbit IgG Secondary Antibody (1:2000 dilution, LI-COR 926-68071) and IRDye 800CW Goat anti-Mouse IgG Secondary Antibody (1:2000 dilution, LI-COR 926-32210). Finally, the membrane was washed again with 1× TBST buffer 3 times. Fluorescence was detected using the Odyssey CLx Imaging System, and the data were analyzed with Empiria Studio Software and GraphPad Prism 9. Table 4 and Table 5 list the degradation results, where the degradation potency is represented by DC50, the concentration of compounds to cause the degradation of 50% of the corresponding proteins. FIGS. 45-49 show western blots illustrating the EGFR degradative activity of exemplary Compound of the present disclosure and a comparator Compound A in different cell lines 24 h after administration. The Compound referred herein as Compound A is disclosed in WO 2022/171123 A1 (see, compound 133, page 46; published Aug. 18, 2022). WO 2022/171123 A1 discloses phosphine oxide derived molecules with EGFR degradation activity.

Assay [2] has as its system BaF3_DTC (EGFR_Exon19del/T790M/C797S). In words: EGFR degradation assay (western blot), BaF3_DTC cells. The note with it: BaF3_DTC cells (EGFR_Exon19del/T790M/C797S), compounds 24 h, western blot; read-out: BaF3_DTC DC50. On the procedure: as §3

T1 sequence (P00533 with tags, fused parts or gaps DUP767-769): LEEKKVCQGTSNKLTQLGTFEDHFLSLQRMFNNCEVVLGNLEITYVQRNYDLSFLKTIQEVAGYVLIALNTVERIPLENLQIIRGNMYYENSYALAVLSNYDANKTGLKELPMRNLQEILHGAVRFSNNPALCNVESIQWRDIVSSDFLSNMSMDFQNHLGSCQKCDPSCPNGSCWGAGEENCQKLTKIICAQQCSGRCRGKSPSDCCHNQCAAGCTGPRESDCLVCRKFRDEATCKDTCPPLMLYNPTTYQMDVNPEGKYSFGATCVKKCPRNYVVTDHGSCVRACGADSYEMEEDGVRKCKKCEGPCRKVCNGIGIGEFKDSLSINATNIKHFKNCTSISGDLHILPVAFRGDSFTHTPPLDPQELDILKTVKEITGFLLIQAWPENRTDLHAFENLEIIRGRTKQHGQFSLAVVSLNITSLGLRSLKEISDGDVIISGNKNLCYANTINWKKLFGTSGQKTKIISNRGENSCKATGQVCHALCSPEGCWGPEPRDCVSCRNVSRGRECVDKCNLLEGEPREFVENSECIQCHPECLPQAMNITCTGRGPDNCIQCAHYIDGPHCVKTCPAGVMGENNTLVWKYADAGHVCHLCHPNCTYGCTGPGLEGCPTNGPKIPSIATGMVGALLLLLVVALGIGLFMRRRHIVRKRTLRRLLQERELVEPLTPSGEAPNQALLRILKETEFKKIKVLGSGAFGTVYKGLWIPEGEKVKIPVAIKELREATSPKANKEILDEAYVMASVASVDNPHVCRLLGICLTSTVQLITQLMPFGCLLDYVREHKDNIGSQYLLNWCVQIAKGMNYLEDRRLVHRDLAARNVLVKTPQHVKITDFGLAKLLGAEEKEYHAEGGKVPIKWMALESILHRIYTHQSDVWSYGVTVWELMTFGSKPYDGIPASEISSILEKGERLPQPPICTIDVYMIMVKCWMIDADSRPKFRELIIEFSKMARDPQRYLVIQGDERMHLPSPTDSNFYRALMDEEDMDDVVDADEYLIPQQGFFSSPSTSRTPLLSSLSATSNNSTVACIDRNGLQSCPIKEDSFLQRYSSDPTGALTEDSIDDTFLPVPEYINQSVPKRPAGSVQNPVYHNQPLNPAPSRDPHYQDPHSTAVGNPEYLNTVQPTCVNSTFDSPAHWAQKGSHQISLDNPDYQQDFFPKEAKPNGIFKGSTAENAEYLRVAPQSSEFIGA

For `CCc1cc(Nc2ncc(Br)c(Nc3ccc4nccnc4c3NS(C)(=O)=O)n2)c(OC)cc1N1CCC(N2CC(N3CCN(c4ccc5c(c4)CN([C@H]4CCC(=O)NC4=O)C5=O)CC3)C2)CC1` [Compound 63, (S)-N-(6-((5-bromo-2-((4-(4-(3-(4-(2-(2,6-dioxopiperidin-3-yl)-1-oxoisoindolin-5-yl)piperazin-1-yl)azetidin-1-yl)piperidin-1-yl)-5-ethyl-2-methoxyphenyl)amino)pyrimidin-4-yl)amino)quinoxalin-5-yl)methanesulfonamide], the 50% growth inhibitory concentration (GI50) with A431 is more than 1000 nM; in the assay on BaF3_ASV, 40.8 nM; in the assay with BaF3_DTC, 6.23 nM. The DC50 was 18.2 nM in assay [1] and 12.9 nM in assay [2].

For `CCc1cc(Nc2ncc(Br)c(Nc3ccc4nccnc4c3NS(C)(=O)=O)n2)c(OC)cc1N1CCC(CN2CCC3(CC2)CCN(c2ccc4c(c2)CN(C2CCC(=O)NC2=O)C4=O)CC3)CC1` (stereo not drawn) [Compound 54, N-(6-((5-bromo-2-((4-(4-((9-(2-(2,6-dioxopiperidin-3-yl)-1-oxoisoindolin-5-yl)-3,9-diazaspiro[5.5]undecan-3-yl)methyl)piperidin-1-yl)-5-ethyl-2-methoxyphenyl)amino)pyrimidin-4-yl)amino)quinoxalin-5-yl)methanesulfonamide], the 50% growth inhibitory concentration (GI50) in the assay on A431 was more than 1000 nM; with BaF3_ASV, 31 nM; with BaF3_DTC it was 4.77 nM. The 50% degradation concentration (DC50) was found to be 33.5 nM in assay [1] and 13.3 nM in assay [2].

For `CCc1cc(Nc2ncc(Br)c(Nc3ccc4nccnc4c3NS(C)(=O)=O)n2)c(OC)cc1N1CCC(N2CC(CN3CCN(c4ccc5c(c4)CN([C@H]4CCC(=O)NC4=O)C5=O)CC3)C2)CC1` [Compound 62, (S)-N-(6-((5-bromo-2-((4-(4-(3-((4-(2-(2,6-dioxopiperidin-3-yl)-1-oxoisoindolin-5-yl)piperazin-1-yl)methyl)azetidin-1-yl)piperidin-1-yl)-5-ethyl-2-methoxyphenyl)amino)pyrimidin-4-yl)amino)quinoxalin-5-yl)methanesulfonamide], the GI50 with A431 is 383 nM; in the assay on BaF3_ASV, 130 nM; in the assay with BaF3_DTC, 19.3 nM. The DC50 in assay [1] came to 75.2 nM; in assay [2], 5.18 nM.

Take `CCc1cc(Nc2ncc(Br)c(Nc3ccc4nccnc4c3NS(C)(=O)=O)n2)c(OC)cc1N1CCC2(CC1)CN(CC1CCN(c3ccc4c(c3)CN(C3CCC(=O)NC3=O)C4=O)CC1)C2` (stereo not drawn) [Compound 40, N-(6-((5-bromo-2-((4-(2-((1-(2-(2,6-dioxopiperidin-3-yl)-1-oxoisoindolin-5-yl)piperidin-4-yl)methyl)-2,7-diazaspiro[3.5]nonan-7-yl)-5-ethyl-2-methoxyphenyl)amino)pyrimidin-4-yl)amino)quinoxalin-5-yl)methanesulfonamide]: the GI50 was 399 nM in the assay on A431, 60.2 nM with BaF3_ASV and 7.99 nM in the assay on BaF3_DTC. Besides, the DC50 in assay [1] is 93.8 nM; in assay [2], 20.8 nM.

For the molecule `CCc1cc(Nc2ncc(Br)c(Nc3ccc4nccnc4c3NS(C)(=O)=O)n2)c(OC)cc1N1CCC(CN2CCC3(CC2)CN(c2ccc4c(c2)CN(C2CCC(=O)NC2=O)C4=O)C3)CC1` (stereo not drawn) [Compound 56, N-(6-((5-bromo-2-((4-(4-((2-(2-(2,6-dioxopiperidin-3-yl)-1~oxoisoindolin-5-yl)-2,7-diazaspiro[3.5]nonan-7-yl)methyl)piperidin-1-yl)-5-ethyl-2-methoxyphenyl)amino)pyrimidin-4-yl)amino)quinoxalin-5-yl)methanesulfonamide], the results for the concentration for 50% growth inhibition (GI50) with A431, in the assay with BaF3_ASV and in the assay with BaF3_DTC were more than 1000 nM, 37.2 nM and 6.08 nM, respectively. In addition, the DC50 in assay [1] turned out to be 18 nM; in assay [2], 9.32 nM.

As for `CCc1cc(Nc2ncc(Br)c(Nc3ccc4nccnc4c3NS(C)(=O)=O)n2)c(OC)cc1N1CCC(N2CCN(CCNc3cccc4c3CN(C3CCC(=O)NC3=O)C4=O)CC2)CC1` (stereo not drawn) [Compound 91, N-(6-((5-bromo-2-((4-(4-(4-(2-((2-(2,6-dioxopiperidin-3-yl)-1-oxoisoindolin-4-yl)amino)ethyl)piperazin-1-yl)piperidin-1-yl)-5-ethyl-2-methoxyphenyl)amino)pyrimidin-4-yl)amino)quinoxalin-5-yl)methanesulfonamide], the concentration for 50% growth inhibition (GI50) with A431 worked out at 448 nM; in the assay with BaF3_ASV it was 48.6 nM; in the assay with BaF3_DTC it was 9.26 nM. The DC50 was 53.7 nM in assay [1] and 8.04 nM in assay [2].

Regarding `CCc1cc(Nc2ncc(Br)c(Nc3ccc4nccnc4c3NS(C)(=O)=O)n2)c(OC)cc1N1CCC(CN2CC3(CCN(c4ccc5c(c4)CN(C4CCC(=O)NC4=O)C5=O)CC3)C2)CC1` (stereo not drawn) [Compound 58, N-(6-((5-bromo-2-((4-(4-((7-(2-(2,6-dioxopiperidin-3-yl)-1-oxoisoindolin-5-yl)-2,7-diazaspiro[3.5]nonan-2-yl)methyl)piperidin-1-yl)-5-ethyl-2-methoxyphenyl)amino)pyrimidin-4-yl)amino)quinoxalin-5-yl)methanesulfonamide], the results for the GI50 in the assay with A431, in the assay with BaF3_ASV and with BaF3_DTC were more than 1000 nM, 49 nM and 11.2 nM, respectively. Moreover, the DC50 was 23 nM in assay [1] and 10.4 nM in assay [2].

Take `CCc1cc(Nc2ncc(Br)c(Nc3ccc4nccnc4c3NS(C)(=O)=O)n2)c(OC)cc1N1CCC(N2CCN(CC3(CN4CCN(c5ccc6c(c5)CN([C@H]5CCC(=O)NC5=O)C6=O)CC4)CC3)CC2)CC1` [Compound 42, (S)-N-(6-((5-bromo-2-((4-(4-(4-((1-((4-(2-(2,6-dioxopiperidin-3-yl)-1-oxoisoindolin-5-yl)piperazin-1-yl)methyl)cyclopropyl)methyl)piperazin-1-yl)piperidin-1-yl)-5-ethyl-2-methoxyphenyl)amino)pyrimidin-4-yl)amino)quinoxalin-5-yl)methanesulfonamide]: the GI50 in the assay with A431 turned out to be 606 nM; in the assay on BaF3_ASV, 105 nM; in the assay with BaF3_DTC, 86 nM. The values for the 50% degradation concentration (DC50) in assay [1] and in assay [2] were more than 1000 nM and more than 100 nM, respectively.

Take `CCc1cc(Nc2ncc(Br)c(Nc3ccc4nccnc4c3NS(C)(=O)=O)n2)c(OC)cc1N1CCN(CC2(CN3CCN(c4ccc5c(c4)CN([C@H]4CCC(=O)NC4=O)C5=O)CC3)CC2)CC1` [Compound 44, (S)-N-(6-((5-bromo-2-((4-(4-((1-((4-(2-(2,6-dioxopiperidin-3-yl)-1-oxoisoindolin-5-yl)piperazin-1-yl)methyl)cyclopropyl)methyl)piperazin-1-yl)-5-ethyl-2-methoxyphenyl)amino)pyrimidin-4-yl)amino)quinoxalin-5-yl)methanesulfonamide]: the results for the GI50 with A431, in the assay on BaF3_ASV and in the assay on BaF3_DTC were more than 1000 nM, 527 nM and 18.4 nM, respectively. Moreover, the 50% degradation concentration (DC50) in assay [1] is more than 1000 nM; in assay [2], 4.11 nM.

These data come from US20250002473A1, “QUINOXALINE DERIVED SULFONAMIDES WITH EGFR DEGRADATION ACTIVITIES AND THEIR USES THEREOF” (Accutar Biotechnology Inc., priority 2023, published 2025).
